Reference: patent publication US20200347264A1, “COMPOSITIONS FOR CONTAINERS AND OTHER ARTICLES AND METHODS OF USING SAME” (SWIMC LLC, priority 2012, published 2020)

These compounds were tested against T1, human estrogen receptor (Homo sapiens, UniProt P03372) (assay: in vitro assay of estrogenic activity correlated to the MCF-7 assay). Settings: suitable in vitro assay correlated to MCF-7 assay; assay not named for hydroquinone.
T1 sequence (P03372 1-595): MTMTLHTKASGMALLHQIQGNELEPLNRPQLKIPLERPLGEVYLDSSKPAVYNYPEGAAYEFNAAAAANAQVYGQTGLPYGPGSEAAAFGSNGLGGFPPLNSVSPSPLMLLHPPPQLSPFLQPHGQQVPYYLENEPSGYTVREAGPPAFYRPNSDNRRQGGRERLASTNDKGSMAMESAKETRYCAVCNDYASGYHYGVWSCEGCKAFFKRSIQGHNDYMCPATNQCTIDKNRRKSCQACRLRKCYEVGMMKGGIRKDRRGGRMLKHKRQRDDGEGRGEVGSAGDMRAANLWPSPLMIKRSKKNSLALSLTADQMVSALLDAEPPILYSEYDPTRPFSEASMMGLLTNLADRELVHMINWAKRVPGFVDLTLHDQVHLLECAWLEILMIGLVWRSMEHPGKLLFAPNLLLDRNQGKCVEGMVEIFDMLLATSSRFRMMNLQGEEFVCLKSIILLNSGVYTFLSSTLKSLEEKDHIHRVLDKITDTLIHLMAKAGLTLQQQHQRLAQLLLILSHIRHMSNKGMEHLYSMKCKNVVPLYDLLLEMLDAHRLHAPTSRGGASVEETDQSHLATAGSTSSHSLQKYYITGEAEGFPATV
Assay type: cell-based
In the case of `CC(C)(C)c1cc(O)c(C(C)(C)C)cc1O`, the estrogenic activity is reported as “does not exhibit appreciable estrogenic activity”.
For `Oc1ccc(O)cc1` [hydroquinone], the estrogenic activity was “appreciably non-estrogenic”.

Each compound was assayed on MCF-7, clone WS8, cells (assay: MCF-7 cell proliferation assay of estrogenic activity). Settings: logarithmic (base 10) Relative Proliferative Effect vs 17-beta estradiol in the MCF-7 assay; values called expected or measured.
Assay type: cell-based, human
Text: The MCF-7 assay uses MCF-7, clone WS8, cells to measure whether and to what extent a substance induces cell proliferation via estrogen receptor (ER)-mediated pathways. The method is described in “Test Method Nomination: MCF-7 Cell Proliferation Assay of Estrogenic Activity” submitted for validation by CertiChem, Inc. to the National Toxicology Program Interagency Center for the Evaluation of Alternative Toxicological Methods (NICEATM) on Jan. 19, 2006 (available online at http://iccvam.niehs.nih.gov/methods/endocrine/endodocs/SubmDoc.pdf).
A brief summary of the method of the aforementioned MCF-7 assay is provided below. MCF-7, clone WS8, cells are maintained at 37° C. in RMPI (Roswell Park Memorial Institute medium) containing Phenol Red (e.g., GIBCO Catalog Number 11875119) and supplemented with the indicated additives for routine culture. An aliquot of cells maintained at 37° C. are grown for 2 days in phenol-free media containing 5% charcoal stripped fetal bovine serum in a 25 cm^2 tissue culture flask. Using a robotic dispenser such as an epMotion 5070 unit, MCF-7 cells are then seeded at 400 cells per well in 0.2 ml of hormone-free culture medium in Corning 96-well plates. The cells are adapted for 3 days in the hormone-free culture medium prior to adding the test chemical to be assayed for activity. The media containing the test chemical is replaced daily for 6 days. At the end of the 7-day exposure to the test chemical, the media is removed, the wells are washed once with 0.2 ml of HBSS (Hanks' Balanced Salt Solution), and then assayed to quantify amounts of DNA per well using a micro-plate modification of the Burton diphenylamine (DPA) assay, which is used to calculate the level of cell proliferation.
RPE is the ratio between the EC50 of the test chemical and the EC50 of the control substance 17-beta estradiol times 100, where EC50 is “effective concentration 50^0/” or half-maximum stimulation concentration for cell proliferation measured as total DNA in the MCF-7 assay.
With `CC(C(=O)O)(c1ccc(O)cc1)c1ccc(O)cc1` the “Log RPE” value was “less than −4”.
`CC(C)(C)c1cc(O)c(C(C)(C)C)cc1O` was tested, and the “Log RPE” value was “less than −4”.
For `CC(C)(c1cc(Br)c(O)c(Br)c1)c1cc(Br)c(O)c(Br)c1`, the “Log RPE” value was −3.
For `C[C@]12CC[C@@H]3c4ccc(O)cc4CC[C@H]3[C@@H]1CC[C@@H]2O` [17β-estradiol], the “Log RPE” value was 2.00.
In the case of `O=S(=O)(c1ccc(O)cc1)c1ccc(O)cc1` [Bisphenol S], the “Log RPE” value is reported as −2.
